# Species on record: Rattus norvegicus
# Experiment: Open TG-GATES - Regimen: Single
# Assay type: toxicity, organism-based, Sprague-Dawley
# Design: regimen Single, gender Male, age 6 weeks
# Conditions: in vivo, po, 45 mg/kg, route gavage, dose level High; for APTT / Bas / Eos / Fbg / Hb / Ht / Lym / MCH / MCHC / MCV / Mono / Neu / PT / Plat / RBC / Ret / WBC: tissue Blood; for KIDNEY_L / KIDNEY_R / KIDNEY_TOTAL: tissue Kidney; for LIVER: tissue Liver; for A/G / ALP / ALT / AST / BUN / CRE / Ca / Cl / DBIL / GLC / IP / K / LDH / Na / PL / RALB / TBIL / TC / TG / TP / gamma-GTP: tissue Plasma
compound,measurement,setting,value
CC(=N)S [THIOACETAMIDE],TERMINAL_BW,3 h,189.5 g
same,APTT,3 h,17.3 s
same,Bas,3 h,0%
same,Eos,3 h,0.6%
same,Fbg,3 h,232.5 mg/dL
same,Hb,3 h,13.5 g/dL
same,Ht,3 h,41%
same,Lym,3 h,71.2%
same,MCH,3 h,21.6 pg
same,MCHC,3 h,33%
same,MCV,3 h,65.4 fL
same,Mono,3 h,8.6%
same,Neu,3 h,20%
same,PT,3 h,12.4 s
same,Plat,3 h,115.5 x10_4/uL
same,RBC,3 h,627 x10_4/ul
same,Ret,3 h,9.5%
same,WBC,3 h,129.7 x10_2/uL
same,KIDNEY_L,3 h,0.8 g
same,KIDNEY_R,3 h,0.8 g
same,KIDNEY_TOTAL,3 h,1.7 g
same,LIVER,3 h,8.7 g
same,A/G,3 h,2
same,ALP,3 h,923 IU/L
same,ALT,3 h,36 IU/L
same,AST,3 h,73.6 IU/L
same,BUN,3 h,13.6 mg/dL
same,CRE,3 h,0.5 mg/dL
same,Ca,3 h,10.9 mg/dL
same,Cl,3 h,104.6 meq/L
same,DBIL,3 h,0 mg/dL
same,GLC,3 h,169.2 mg/dL
same,IP,3 h,9.7 mg/dL
same,K,3 h,4.4 meq/L
same,LDH,3 h,200.6 IU/L
same,Na,3 h,139.6 meq/L
same,PL,3 h,137.6 mg/dL
same,RALB,3 h,3.8 g/dL
same,TBIL,3 h,0.4 mg/dL
same,TC,3 h,84 mg/dL
same,TG,3 h,54.8 mg/dL
same,TP,3 h,5.6 g/dL
same,gamma-GTP,3 h,2 IU/L
same,TERMINAL_BW,6 h,187 g
same,APTT,6 h,17.2 s
same,Bas,6 h,0%
same,Eos,6 h,0.2%
same,Fbg,6 h,230.4 mg/dL
same,Hb,6 h,13.7 g/dL
same,Ht,6 h,41.3%
same,Lym,6 h,71%
same,MCH,6 h,21.8 pg
same,MCHC,6 h,33.1%
same,MCV,6 h,66 fL
same,Mono,6 h,6.2%
same,Neu,6 h,22.2%
same,PT,6 h,12.9 s
same,Plat,6 h,104.7 x10_4/uL
same,RBC,6 h,627.2 x10_4/ul
same,Ret,6 h,9.9%
same,WBC,6 h,118 x10_2/uL
same,KIDNEY_L,6 h,0.8 g
same,KIDNEY_R,6 h,0.8 g
same,KIDNEY_TOTAL,6 h,1.6 g
same,LIVER,6 h,8 g
same,A/G,6 h,1.9
same,ALP,6 h,836.6 IU/L
same,ALT,6 h,33.8 IU/L
same,AST,6 h,75.2 IU/L
same,BUN,6 h,10.2 mg/dL
same,CRE,6 h,0.6 mg/dL
same,Ca,6 h,10.4 mg/dL
same,Cl,6 h,104.4 meq/L
same,DBIL,6 h,0.024 mg/dL
same,GLC,6 h,162.4 mg/dL
same,IP,6 h,9.9 mg/dL
same,K,6 h,4.7 meq/L
same,LDH,6 h,155.4 IU/L
same,Na,6 h,138.2 meq/L
same,PL,6 h,129.8 mg/dL
same,RALB,6 h,3.6 g/dL
same,TBIL,6 h,0.4 mg/dL
same,TC,6 h,79.4 mg/dL
same,TG,6 h,34.8 mg/dL
same,TP,6 h,5.5 g/dL
same,gamma-GTP,6 h,1.8 IU/L
same,TERMINAL_BW,9 h,189.4 g
same,APTT,9 h,17 s
same,Bas,9 h,0%
same,Eos,9 h,0.6%
same,Fbg,9 h,224.4 mg/dL
same,Hb,9 h,13.1 g/dL
same,Ht,9 h,39.6%
same,Lym,9 h,71%
same,MCH,9 h,21.8 pg
same,MCHC,9 h,33%
same,MCV,9 h,66 fL
same,Mono,9 h,7.4%
same,Neu,9 h,21%
same,PT,9 h,14.1 s
same,Plat,9 h,100.8 x10_4/uL
same,RBC,9 h,600 x10_4/ul
same,Ret,9 h,10%
same,WBC,9 h,126.2 x10_2/uL
same,KIDNEY_L,9 h,0.8 g
same,KIDNEY_R,9 h,0.9 g
same,KIDNEY_TOTAL,9 h,1.7 g
same,LIVER,9 h,8 g
same,A/G,9 h,2
same,ALP,9 h,886 IU/L
same,ALT,9 h,41.2 IU/L
same,AST,9 h,93.2 IU/L
same,BUN,9 h,12.6 mg/dL
same,CRE,9 h,0.5 mg/dL
same,Ca,9 h,10.4 mg/dL
same,Cl,9 h,104.6 meq/L
same,DBIL,9 h,0.008 mg/dL
same,GLC,9 h,168.4 mg/dL
same,IP,9 h,10.4 mg/dL
same,K,9 h,4.4 meq/L
same,LDH,9 h,229.2 IU/L
same,Na,9 h,137.4 meq/L
same,PL,9 h,134.8 mg/dL
same,RALB,9 h,3.6 g/dL
same,TBIL,9 h,0.4 mg/dL
same,TC,9 h,84.8 mg/dL
same,TG,9 h,32.4 mg/dL
same,TP,9 h,5.4 g/dL
same,gamma-GTP,9 h,1.8 IU/L
same,TERMINAL_BW,24 h,186.6 g
same,APTT,24 h,21.2 s
same,Bas,24 h,0%
same,Eos,24 h,0.6%
same,Fbg,24 h,232 mg/dL
same,Hb,24 h,14.7 g/dL
same,Ht,24 h,44.9%
same,Lym,24 h,69.8%
same,MCH,24 h,21.2 pg
same,MCHC,24 h,32.8%
same,MCV,24 h,64.6 fL
same,Mono,24 h,1.8%
same,Neu,24 h,27.8%
same,PT,24 h,15.7 s
same,Plat,24 h,104.8 x10_4/uL
same,RBC,24 h,695.6 x10_4/ul
same,Ret,24 h,9%
same,WBC,24 h,91 x10_2/uL
same,KIDNEY_L,24 h,0.9 g
same,KIDNEY_R,24 h,0.9 g
same,KIDNEY_TOTAL,24 h,1.8 g
same,LIVER,24 h,9.3 g
same,A/G,24 h,2
same,ALP,24 h,1017.6 IU/L
same,ALT,24 h,137.2 IU/L
same,AST,24 h,713.8 IU/L
same,BUN,24 h,15.2 mg/dL
same,CRE,24 h,0.5 mg/dL
same,Ca,24 h,10.4 mg/dL
same,Cl,24 h,102.4 meq/L
same,DBIL,24 h,0.046 mg/dL
same,GLC,24 h,152 mg/dL
same,IP,24 h,8.5 mg/dL
same,K,24 h,4.7 meq/L
same,LDH,24 h,1117 IU/L
same,Na,24 h,135.8 meq/L
same,PL,24 h,142 mg/dL
same,RALB,24 h,3.8 g/dL
same,TBIL,24 h,0.3 mg/dL
same,TC,24 h,86.8 mg/dL
same,TG,24 h,64.6 mg/dL
same,TP,24 h,5.8 g/dL
same,gamma-GTP,24 h,1 IU/L
